Values after ≈ are worked out from the molar mass of the structure shown. “Also recorded” adds a separate entry of the source. Square brackets hold non-standard residues; d marks the D form. Peptide text beside a SMILES is read from it. * marks the point of attachment. FITC = O=C1OC2(c3ccc(O)cc3Oc3cc(O)ccc32)c2ccc(NC(=S)*)cc21; Bip = N[C@@H](Cc1ccc(-c2ccccc2)cc1)C(=O)O; Dip = N[C@H](C(=O)O)C(c1ccccc1)c1ccccc1; Ahx = NCCCCCC(=O)O
Columns and labels:
[1] = test system: Candida albicans; assay type: cell-based; settings: 1× MIC, 30 min, SD broth, 28 °C, 5 × 10^4 CFU/mL, normal salt conditions, triplicate
Method: Figure 7 Time killing activity of FITC-labeled P-113 peptide and its FITC-labeled derivatives against Candida albicans. Cells were treated with 1× MIC of (a) P-113 (black circle), FITC-labeled N-terminal truncated P-113 (black square), FITC-labeled C-terminal truncated P-113 (black triangle), and (b) treated with FITC-labeled Bip-P-113 (white square), and FITC-labeled Dip-P-113 (white triangle). Killed cells (%) = (cell number in peptide-free control − cell number in sample)/(cell number in peptide-free control) × 100. Error bars represent the standard errors of the mean.
C. albicans were cultivated onto Sabouraud dextrose agar plates overnight and sub-cultured twice before time killing assays. A total of 5 × 10^4 CFU/mL of C. albicans cells were treated with 1× MIC of FITC-conjugated P-113 peptides and their derivatives in SD broth for 10, 20, 30, 60, and 120 min at 28 °C. After that time, serial dilutions (1:10) of the incubation mixtures were added onto SD agar. The numbers of CFU were counted after 24 h of incubation at 28 °C. The percentage of killed cells was calculated by comparison with the number of cells in a control sample incubated without P-113 peptide. The assays were performed in triplicate.

[2] = test system: C. albicans; assay: Confocal laser microscopy, localization of FITC peptides; assay type: cell-based, Candida albicans; settings: 50 μM FITC-conjugated peptide, 10^7 CFU/mL, SD broth, 28 °C, 5 min
Method: Firstly, 10^7 CFU/mL of C. albicans was incubated with 0.25 mM FITC P-113 and 0.25 mM FITC alone (as a negative control) in SD broth at 28 °C for 1, 2, 3, 4, 5, and 6 h. Another experiment was performed to observe the short-term localization of Bip-P-113 and Dip-P-113 peptides. Briefly, log-phase C. albicans cultures were resuspended to a cell density of 10^7 CFU/mL in SD broth and treated for 5 min at 28 °C with 50 μM FITC-conjugated P-113, Bip-P-113, and Dip-P-113. After centrifugation, the cells were washed three times with 20 mM phosphate buffer (pH 7.4) to remove nonbinding peptides and fixed with 4% (w/v) paraformaldehyde in 20 mM phosphate buffer (pH 7.4) at room temperature for 20 min. Following fixation, the cells were centrifuged at 3500× g for 5 min, resuspended in phosphate buffer, and loaded onto a glass slide with a 1.4% solid agarose bed. The images were taken with a confocal laser scanning microscope (LSM 510 META, Carl Zeiss, Jena, Germany) equipped with a 40× C-Apochromat water-immersion objective lens (Carl Zeiss, Jena, Germany).

[3] = test system: C. albicans; assay: Scanning electron microscopy, cell morphology; assay type: cell-based, Candida albicans; settings: 50 μM peptide, 10^7 CFU/mL, SD broth, 28 °C, 5 min
Method: Time-course morphological studies of C. albicans were performed by scanning electron microscopy (SEM). Overnight cultures of C. albicans were sub-cultured and grown in SD broth. Then, 10^7 CFU/mL of C. albicans was treated with 0.25 mM P-113 in SD broth at 28 °C. Samples were collected following 1, 2, 3, 4, 5, and 6 h of incubation. Another experiment was performed to observe the morphological changes caused over in a short time caused by Bip-P-113 and Dip-P-113. Briefly, 10^7 CFU/mL of C. albicans in SD broth was treated for 5 min at 28 °C with 50 μM P-113, Bip-P-113, and Dip-P-113. After harvest, cells were resuspended in fixation solution (2.5% glutaraldehyde in 20 mM phosphate buffer pH 7.4) and then placed on Thermanox substrate-coated cover slips at 4 °C for 12 h. The cover slips were carefully washed three times with 20 mM phosphate buffer (pH 7.4), followed by incubation in post-fixation solution (1% OsO4 in 20 mM phosphate buffer pH 7.4) at room temperature for an hour. After being washed three times with 20 mM phosphate buffer (pH 7.4), the cover slips were air-dried for an hour by dehydration with a graded series of ethanol. Samples were gold-coated and observed under an S-4700 field-emission (FE)-SEM (Hitachi, Ltd., Tokyo, Japan) at an acceleration voltage of 5 kV.

[4] = histidine residues replaced with non-natural amino acids; cited from earlier work
[5] = test system: C. albicans American Type Culture Collection (ATCC) 10,231; assay type: cell-based, Candida albicans; settings: American Type Culture Collection (ATCC) 10,231, 24 h
Method: C. albicans (ATCC 10231) from the American Type Culture Collection (Manassas, VA, USA) was cultured at 28 °C on SD agar plates.
To determine the minimum inhibitory concentration (MIC) values of the FITC conjugated-P-113 peptides and their derivatives, a broth microdilution assay was used. Overnight-grown cultures of C. albicans in SD broth were sub-cultured for several hours and subsequently diluted to a final concentration of 5 × 10^4 CFU/mL in Mueller Hinton (MH) broth and LYM broth. A total of 100 μL of diluted microbe was transferred into each well of a 96-well plate, into which a 1 μL dilution series of peptides in sterile water (ranging from 50 to 0.78 μg/mL) was previously added. After incubation for 24 h at 28 ℃, the MIC value of P-113 peptides was determined as the lowest concentration at which no change in optical density was observed. The experiment was conducted three times, and average values were reported.

[6] = 10^7 CFU/mL of C. albicans in SD broth; settings: C. albicans (ATCC 10231), 301 K, up to 24 h
[7] = 10^7 CFU/mL of C. albicans + 0.5 mM pepstatin A; settings: C. albicans (ATCC 10231), 301 K, up to 24 h

| Compound | Cellular localization of FITC peptide [2] | Cell surface morphology (SEM), short exposure [3] | Degradation in serum [4] | further results |
| --- | --- | --- | --- | --- |
| C[C@H](NC(=O)CCCCCNC(=S)Nc1ccc2c(c1)C(=O)OC21c2ccc(O)cc2Oc2cc(O)ccc21)C(=O)N[C@@H](CCCCN)C(=O)N[C@@H](CCCNC(=N)N)C(=O)N[C@@H](Cc1ccc(-c2ccccc2)cc1)C(=O)N[C@@H](Cc1ccc(-c2ccccc2)cc1)C(=O)NCC(=O)N[C@@H](Cc1ccc(O)cc1)C(=O)N[C@@H](CCCCN)C(=O)N[C@@H](CCCNC(=N)N)C(=O)N[C@@H](CCCCN)C(=O)N[C@@H](Cc1ccccc1)C(=O)N[C@@H](Cc1ccc(-c2ccccc2)cc1)C(N)=O [Bip-P-113] ({FITC-Ahx}-AKR[Bip][Bip]GYKRKF[Bip]-NH2; N-terminus assumed) | accumulated on the surface of cells and did not translocate into the cytoplasm | became rippled and showed deep pore formation | protects | Reduction in cell viability [1]: 99% |
| C[C@H](NC(=O)CCCCCNC(=S)Nc1ccc2c(c1)C(=O)OC21c2ccc(O)cc2Oc2cc(O)ccc21)C(=O)N[C@@H](CCCCN)C(=O)N[C@@H](CCCNC(=N)N)C(=O)N[C@H](C(=O)N[C@H](C(=O)NCC(=O)N[C@@H](Cc1ccc(O)cc1)C(=O)N[C@@H](CCCCN)C(=O)N[C@@H](CCCNC(=N)N)C(=O)N[C@@H](CCCCN)C(=O)N[C@@H](Cc1ccccc1)C(=O)N[C@H](C(N)=O)C(c1ccccc1)c1ccccc1)C(c1ccccc1)c1ccccc1)C(c1ccccc1)c1ccccc1 [Dip-P-113] ({FITC-Ahx}-AKR[Dip][Dip]GYKRKF[Dip]-NH2; N-terminus assumed) | accumulated on the surface of cells and did not translocate into the cytoplasm | became rippled and showed deep pore formation | protects | – |
| N=C(N)NCCC[C@H](NC(=O)CCCCCNC(=S)Nc1ccc2c(c1)C(=O)OC21c2ccc(O)cc2Oc2cc(O)ccc21)C(=O)N[C@@H](Cc1c[nH]cn1)C(=O)N[C@@H](Cc1c[nH]cn1)C(=O)NCC(=O)N[C@@H](Cc1ccc(O)cc1)C(=O)N[C@@H](CCCCN)C(=O)N[C@@H](CCCNC(=N)N)C(=O)N[C@@H](CCCCN)C(=O)N[C@@H](Cc1ccccc1)C(=O)N[C@@H](Cc1c[nH]cn1)C(N)=O [N-ter truncated P-113] ({FITC-Ahx}-RHHGYKRKFH-NH2; N-terminus assumed) | – | – | – | MIC, LYM Control [5]: 25 µg/mL (≈ 13.4 µM); MIC, MH Broth [5]: >50 µg/mL |
| AKRHHGYKRKFH | – | – | – | cleaved bond [6]: Lys10-Phe11, first_seen, 1 h; also recorded: Tyr7-Lys8, 2–3 h; also recorded: Lys8-Arg9; not cleaved [7]: no noticeable changes in ^1H-^15N HSQC chemical shifts in the presence of pepstatin A (24 h) |

Reference: paper PMC7178208 (International Journal of Molecular Sciences, 2020)
